Laboratory results taken from patent EP0250134B1, “Method for combating swine dysentery” (IMCERA Group Inc., priority 1986, dated 1987).

Legend:
Treponema hyodysenteriae = test: in vitro Streak Plate Test Method (inhibition endpoint / MIC on trypticase soy blood agar); assay type: cell-based; conditions: summary of Table 1
Experimental: The following test procedure was used to evaluate the anti-Treponema hyodysenteriae activity of the compounds in the present invention. This test procedure establishes the lowest concentration of the compounds that will inhibit the growth on cultures of Treponema hyodysenteriae in an in vitro Streak Plate Test Method.
Procedure: Stock solutions containing 10,000, 1,000, 100, 10, 1.0, and 0.1, micrograms per milliliters of the compound to be tested were prepared. The final dilutions to establish the test concentrations in the media were made by placing the correct volume of stock solution in a petri dish, adding the media (trypticase soy blood agar), and mixing before the media solidified. After the media solidified, the test cultures of Treponema hyodysenteriae were streaked onto the surface of the agar. Petri dishes containing media without test samples were also set up as culture controls and are inoculated in the same manner. All inoculated plates were incubated at 39°C in anaerobic jars for 48 hrs. Inhibition endpoints were then determined by observing the test plates for growth or no growth of the test cultures at the various concentrations of the compounds. If the culture growth occured at one concentration but not at the next higher concentration, the inhibitory endpoint or MIC (Minimum Inhibitory Concentration) was considered the higher concentration.
Referring to Table 1, the culture numbers refer to field isolate strains of Treponema hyodysenteriae. These field isolates were isolated in Illinois, Iowa, and Nebraska. The numbers giving the results in the Table are read as follows: the first number for each isolate and compound tested corresponds to the concentration in micrograms per milliliter where growth occurred and the second number corresponds to the concentration in micrograms per milliliter where no growth occurred.

[1] = test system: Treponema hyodysenteriae induced swine dysentery; test: Treponema hyodysenteriae induced swine dysentery, lysocellin in feed, 51-day trial, challenge on study day 22; assay type: in vivo; conditions: for Number of Pigs per Pen Expressing Clinical Signs of Dysentery During the Postchallenge Period: Anorexia / Number of Pigs per Pen Expressing Clinical Signs of Dysentery During the Postchallenge Period: Any clinical signs / Number of Pigs per Pen Expressing Clinical Signs of Dysentery During the Postchallenge Period: Bloody feces / Number of Pigs per Pen Expressing Clinical Signs of Dysentery During the Postchallenge Period: Dehydrated / Number of Pigs per Pen Expressing Clinical Signs of Dysentery During the Postchallenge Period: Depressed / Number of Pigs per Pen Expressing Clinical Signs of Dysentery During the Postchallenge Period: Gauntness / Number of Pigs per Pen Expressing Clinical Signs of Dysentery During the Postchallenge Period: Lethargic / Number of Pigs per Pen Expressing Clinical Signs of Dysentery During the Postchallenge Period: Reddened skin / Number of Pigs per Pen Expressing Clinical Signs of Dysentery During the Postchallenge Period: Rough hair coat / Number of Pigs per Pen Expressing Clinical Signs of Dysentery During the Postchallenge Period: Weak: 5 pigs/pen
Source text: One hundred twenty (120) cross-bred barrows and gilts were used in a randomized complete blocks design to evaluate the effect of lysocellin on Treponema hyodysenteriae induced swine dysentery. The swine were divided into 4 groups: (1) non-infected, non-medicated controls, (2) infected non-medicated controls, (3) infected, medicated at 98.43 grams lysocellin/t (100 g/T), and (4) infected, medicated at 196.85 grams lysocellin/t (200 g/T). All were observed through a 51-day trial period. Swine in groups (2)-(4) were challenged with Treponema hyodysenteriae on study day 22 and the post-challenge period data were analyzed for significant differences. A description of the experimental design is summarized as follows:
Comparisons were made on treatment 1 vs. treatments 3 and 4, treatment 2 vs. treatment 3 and 4, and treatment 3 vs. treatment 4. The following observations were made based upon data analyzed: postchallenge performance of swine with respect to daily gain and daily feed gain, number of pigs per pen expressing clinical signs of dysentery during the postchallenge period, number of pig days per pen with clinical signs of dysentery during the postchallenge period, and number of pig days per pen with specified fecal score.
Referring to table 3 and table 4, clinical signs of dysentery observed during the postchallenge period are presented as treatment means of: number of pigs per pen expressing the sign and number of pig days the sign was observed within a pen. The value "pig days" was based on 28 days/pig surviving to the end of the trial or number of days a pig survived during the postchallenge period (for example, 5 pigs/pen on trial for 28 days equals 140 pig days). Removal of pigs from a pen during the trial was taken into account in these calculations.

[2] = 98.43 g/t (100 g/T) lysocellin, mean (lower, higher 95% confidence limits)
[3] = 98.43 g/t (100 g/T) lysocellin, mean (lower, higher 95% confidence limits), 5 pigs/pen for 28 days = 140 pig days
[4] = 196.85 g/t (200 g/T) lysocellin, mean (lower, higher 95% confidence limits)
[5] = 196.85 g/t (200 g/T) lysocellin, mean (lower, higher 95% confidence limits), 5 pigs/pen for 28 days = 140 pig days

In the case of lysocellin, the “activity compared to the controls” value (Treponema hyodysenteriae) is reported as “comparable activity”, the “Number of Pigs per Pen Expressing Clinical Signs of Dysentery During the Postchallenge Period: Anorexia” value [1, 2] is reported as 0.00 (-0.27,0.37) and the “Number of Pigs per Pen Expressing Clinical Signs of Dysentery During the Postchallenge Period: Any clinical signs” value [1, 2] is reported as 4.49 (3.42,5.69). The “Number of Pigs per Pen Expressing Clinical Signs of Dysentery During the Postchallenge Period: Bloody feces” value [1, 2] was 2.73 (1.93,3.66), the “Number of Pigs per Pen Expressing Clinical Signs of Dysentery During the Postchallenge Period: Dehydrated” value [1, 2] was 1.08 (0.44,1.89) and the “Number of Pigs per Pen Expressing Clinical Signs of Dysentery During the Postchallenge Period: Depressed” value [1, 2] was 1.78 (1.18,2.47). The “Number of Pigs per Pen Expressing Clinical Signs of Dysentery During the Postchallenge Period: Gauntness” value [1, 2] was 3.98 (3.13,4.92), the “Number of Pigs per Pen Expressing Clinical Signs of Dysentery During the Postchallenge Period: Lethargic” value [1, 2] was 2.12 (1.50,2.82) and the “Number of Pigs per Pen Expressing Clinical Signs of Dysentery During the Postchallenge Period: Reddened skin” value [1, 2] was 0.87 (0.24,1.69). For the same substance, the “Number of Pigs per Pen Expressing Clinical Signs of Dysentery During the Postchallenge Period: Rough hair coat” value [1, 2] was 1.93 (1.20,2.79), the “Number of Pigs per Pen Expressing Clinical Signs of Dysentery During the Postchallenge Period: Weak” value [1, 2] was 1.93 (1.31,2.64) and the “Number of Pig Days per Pen with Clinical Signs of Dysentery During the Postchallenge Period: Anorexia” value [1, 3] was 0.00 (-0.30,0.43). The “Number of Pig Days per Pen with Clinical Signs of Dysentery During the Postchallenge Period: Bloody feces” value [1, 3] was 9.98 (5.72,15.34), the “Number of Pig Days per Pen with Clinical Signs of Dysentery During the Postchallenge Period: Dehydrated” value [1, 3] was 2.69 (1.40,4.33) and the “Number of Pig Days per Pen with Clinical Signs of Dysentery During the Postchallenge Period: Depressed” value [1, 3] was 3.14 (1.78,4.81). For the same substance, the “Number of Pig Days per Pen with Clinical Signs of Dysentery During the Postchallenge Period: Gauntness” value [1, 3] was 30.35 (20.97,41.42), the “Number of Pig Days per Pen with Clinical Signs of Dysentery During the Postchallenge Period: Lethargic” value [1, 3] was 9.08 (4.93,14.42) and the “Number of Pig Days per Pen with Clinical Signs of Dysentery During the Postchallenge Period: Reddened skin” value [1, 3] was 2.21 (0.51,4.72). The “Number of Pig Days per Pen with Clinical Signs of Dysentery During the Postchallenge Period: Rough hair coat” value [1, 3] was 18.07 (7.46,33.11), the “Number of Pig Days per Pen with Clinical Signs of Dysentery During the Postchallenge Period: Weak” value [1, 3] was 0.87 (0.08,1.99) and the “fecal condition (number of pen pig days with a specified fecal condition)” value ([1]; 196.85 g lysocellin/t (200 g/T) rather than 98.43 g/T, postchallenge period (Table 5, not given)) was “increased (PM.05) the number of days with normal feces and decreased (P<.05) the incidence of soft, watery or bloody feces”. For the same substance, the “Number of Pigs per Pen Expressing Clinical Signs of Dysentery During the Postchallenge Period: Anorexia” value [1, 4] was 0.00 (-0.27,0.37), the “Number of Pigs per Pen Expressing Clinical Signs of Dysentery During the Postchallenge Period: Any clinical signs” value [1, 4] was 2.72 (1.87,3.70) and the “Number of Pigs per Pen Expressing Clinical Signs of Dysentery During the Postchallenge Period: Bloody feces” value [1, 4] was 1.20 (0.63,1.89). The “Number of Pigs per Pen Expressing Clinical Signs of Dysentery During the Postchallenge Period: Dehydrated” value [1, 4] was 0.23 (-0.18,0.80), the “Number of Pigs per Pen Expressing Clinical Signs of Dysentery During the Postchallenge Period: Depressed” value [1, 4] was 0.27 (-0.06,0.70) and the “Number of Pigs per Pen Expressing Clinical Signs of Dysentery During the Postchallenge Period: Gauntness” value [1, 4] was 1.96 (1.35,2.67). The “Number of Pigs per Pen Expressing Clinical Signs of Dysentery During the Postchallenge Period: Lethargic” value [1, 4] was 0.43 (0.08,0.87), the “Number of Pigs per Pen Expressing Clinical Signs of Dysentery During the Postchallenge Period: Reddened skin” value [1, 4] was 0.55 (0.01,1.28) and the “Number of Pigs per Pen Expressing Clinical Signs of Dysentery During the Postchallenge Period: Rough hair coat” value [1, 4] was 1.31 (0.68,2.06). The “Number of Pigs per Pen Expressing Clinical Signs of Dysentery During the Postchallenge Period: Weak” value [1, 4] was 1.31 (0.78,1.93), the “Number of Pig Days per Pen with Clinical Signs of Dysentery During the Postchallenge Period: Anorexia” value [1, 5] was 0.00 (-0.30,0.43) and the “Number of Pig Days per Pen with Clinical Signs of Dysentery During the Postchallenge Period: Bloody feces” value [1, 5] was 3.02 (0.78,6.35). For the same substance, the “Number of Pig Days per Pen with Clinical Signs of Dysentery During the Postchallenge Period: Dehydrated” value [1, 5] was 0.23 (-0.30,1.09).
